Test [1] deals with Mycobacterium tuberculosis. Nature of the test: Inhibition of Mycobacterium tuberculosis MTCC 300 DAH7PS expressed in Escherichia coli BL21 (DE3) using 25 to 125 uM PEP/100 uM E4P as substrate at 10 uM by spectrophotometric analysis relative to control.
The nature of test [2]: (§1) Inhibition of Mycobacterium tuberculosis MTCC 300 DAH7PS expressed in Escherichia coli BL21 (DE3) using 25 to 125 uM PEP/100 uM E4P as substrate by spectrophotometric analysis.
For test [3], the system named is Mycobacterium tuberculosis. The test is described as follows: Inhibition of Mycobacterium tuberculosis MTCC 300 DAH7PS expressed in Escherichia coli BL21 (DE3) using 25 to 125 uM PEP/100 uM E4P as substrate up to 50 nM by spectrophotometric analysis.
Test [4] deals with Mycobacterium tuberculosis. Described as §1.

Calls of active or inactive are those of the source. No cut-off for these calls is given here.

The inhibition is how much of the control response was suppressed. The IC50 is the concentration that inhibits the measured activity by half. A lower IC50 goes with greater potency in that assay.

`N[C@@H](Cc1ccc(O)cc1)C(=O)O` [TYROSINE] gave an inhibition in test [1] of 41%. The compound also gave an IC50 in test [2] of 13 µM.

Consider `Cc1c(C)c2c(c(C)c1O)CC[C@@](C)(CCC[C@H](C)CCC[C@H](C)CCCC(C)C)O2` [ALPHA-TOCOPHEROL], for which the inhibition entry in test [3] is “inactive”. Moreover, the inhibition in test [1] was 21%; in test [4] it was “Dose-dependent effect”. In addition, the IC50 in test [2] is 21 µM.

Take `O=C(/C=C/c1ccc(O)c(O)c1)O[C@@H]1C[C@](O)(C(=O)O)C[C@@H](O)[C@H]1O` [CHLOROGENIC ACID]: the inhibition result in test [3] was “inactive”. The compound also came in with an inhibition in test [1] of 9%. The IC50 in test [2] came out at 291 µM.

Regarding `C[C@]1(O)CC[C@@H]2C(C(=O)O)=CO[C@@H](O[C@@H]3O[C@H](CO)[C@@H](O)[C@H](O)[C@H]3OC(=O)c3ccc(O)cc3)[C@@H]21` [NEGUNDOSIDE], in test [3], the inhibition entry was “inactive”. The compound also showed an inhibition in test [1] of 8%. For the same compound, in test [2], it took 159 µM to reach half-maximal inhibition (IC50).

Consider `C[C@@H]1O[C@@H](OC[C@H]2O[C@@H](Oc3c(-c4ccc(O)c(O)c4)oc4cc(O)cc(O)c4c3=O)[C@H](O)[C@@H](O)[C@@H]2O)[C@H](O)[C@H](O)[C@H]1O` [RUTIN], for which the inhibition result in test [3] was “inactive”. The inhibition in test [1] was 17%; in test [4] it was “Dose-dependent effect”. In addition, it took 42 µM to reach half-maximal inhibition in test [2] (IC50).

As to `O=Cc1cccnc1` [NICOTINALDEHYDE], the inhibition result in test [3] is “inactive”. Moreover, the inhibition in test [1] was 16%; in test [4], “Dose-dependent effect”. Besides, in test [2], the IC50 turned out to be 54 µM.
